We go through one compound from US11261189B2, “Substituted 2,4 diamino-quinoline as new medicament for fibrosis, autophagy and cathepsins B (CTSB), L (CTSL) and D (CTSD) related diseases” (Genoscience Pharma, priority 2018, dated 2022).

The target in this experiment is T1, cathepsin D (CTSD) (Homo sapiens, UniProt P07339).
T1 construct: cell lysates (1 μg of total proteins) were pre-incubated with citrate buffer pH 4.0; endogenous in cells; host or cells: HepG2
Nature of the experiment: Cathepsin D (CTSD) peptidase activity in lysates of treated HepG2 cells (MOCAc quenched fluorogenic substrate). Format: cell-based. As for the experimental part: Lysosomal functions was investigated in a hepatocellular carcinoma (HCC) cell line HepG2 after 6 hours and 24 hours of treatment with compound 2-3 (the hydrochloride salt form of compound 2-2) using functional assays of some lysosomal enzymes activity: two cysteine proteinases: cathepsin B (CTSB) and cathepsin L (CTSL), and one aspartic proteinase: cathepsin D (CTSD). Two sets of three concentrations of compound 2-3 (1 μM, 2 μM, and 4 μM for 6 hours, and 0.5 μM, 1 μM and 2 μM for 24 hours) were tested at least in triplicate and four independent experiments were performed. Salinomycin (7.5 μM for 6 hours and 24 hours) was used as a positive control.
The HepG2 cell line was maintained in DMEM (Dulbecco's Modified Eagle Media) high glucose (Cat #L0103-500, Dutscher) containing 1% penicillin-streptomycin (Cat #P06-07100, Dutscher) and 10% FBS (Fetal Bovine Serum) (Cat #11543407, Life Technologies). Cells were cultured at 37° C. with 5% CO2.
The day before the experiment, 6-well plates (Cat #353046, Dutscher) with 250,000 cells in 2.7 mL of medium per well were prepared.
Compound 2-3 was dissolved with filtrated H2O mQ to make a 10 mM stock solution and serial working solutions (10× solutions) were prepared with the diluent (=culture medium with 0.4% H2O mQ) at 5 μM, 10 μM, 20 μM and 40 μM: the “dilution 1” is made from the 10 mM stock solution in the culture medium and the following serial dilutions were made in the diluent to maintain a constant percentage of H2O.
Salinomycin [CAS 53003-10-4] was used as positive control and was dissolved with methanol to make a 10 mM stock solution and a 10× solution at 75 μM was prepared with the culture medium. […]
After 6 hours or 24 hours of cells treatment, the medium was removed from each well. […] Total protein concentration was assessed using the Bradford reagent (Cat #B6916-500ML, Sigma-Aldrich) and cellular lysates were stored at −80° C. until catalytic activity measurement. […]

The structures appear in SMILES notation. Structures can show the parent of a compound that is named as a salt.

T1 sequence (P07339 65-412): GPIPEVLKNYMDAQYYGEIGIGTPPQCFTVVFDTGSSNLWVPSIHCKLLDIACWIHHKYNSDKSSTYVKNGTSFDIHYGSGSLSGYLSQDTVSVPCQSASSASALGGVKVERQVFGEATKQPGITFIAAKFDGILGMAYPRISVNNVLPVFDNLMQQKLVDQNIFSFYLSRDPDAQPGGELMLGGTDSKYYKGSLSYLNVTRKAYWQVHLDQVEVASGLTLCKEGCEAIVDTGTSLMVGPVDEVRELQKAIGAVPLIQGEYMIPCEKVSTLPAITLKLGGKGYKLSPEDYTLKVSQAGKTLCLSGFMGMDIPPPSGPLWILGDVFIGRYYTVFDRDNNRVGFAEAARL

For the compound `CC(C)(C)NC1CCN(c2cc(NCc3ccc(Cl)cc3)nc3ccccc23)CC1` [2-3, 2-(4-chlorobenzylamino)-4-(4-tert-butylaminopiperidin-1-yl)-quinoline Hydrochloride Salt], the “CTSD activity versus NT” value (HepG2, 4 μM, 6 hours of treatment) stood at 60.6%. Further, the “inhibition of cathepsin D (CTSD) compare to the control” value (HepG2, 4 μM for 6 hours and 2 μM for 24 hours, p<0.05) is reported as “statistically significant”.
